Where a name gives a salt, the structure may show the parent alone. Read-outs that look alike come from different tables or passages of the source.

As a reminder, the Ki is the dissociation constant of the complex between target and ligand, obtained from inhibition or displacement. Read a high Ki as a looser hold on the target.

Test [1] deals with T1, serotonin 5HT1A receptor (Rat Hippocampus Membranes) (Rattus norvegicus, UniProt P19327).
T1 construct: Hippocampus; from tissue; host or cells: rat hippocampus membranes
T1 sequence (P19327 1-422): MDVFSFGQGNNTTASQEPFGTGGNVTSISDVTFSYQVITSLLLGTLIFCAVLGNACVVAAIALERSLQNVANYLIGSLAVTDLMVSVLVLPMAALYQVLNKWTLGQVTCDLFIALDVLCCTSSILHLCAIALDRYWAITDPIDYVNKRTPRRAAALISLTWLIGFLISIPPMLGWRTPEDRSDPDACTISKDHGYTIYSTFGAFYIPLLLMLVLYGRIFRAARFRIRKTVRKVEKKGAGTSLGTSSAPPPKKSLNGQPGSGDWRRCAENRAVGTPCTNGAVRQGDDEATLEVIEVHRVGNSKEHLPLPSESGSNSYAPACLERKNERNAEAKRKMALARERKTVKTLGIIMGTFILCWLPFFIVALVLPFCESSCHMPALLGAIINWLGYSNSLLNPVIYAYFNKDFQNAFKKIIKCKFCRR
Kind of test: Inhibition of [^3 H]8-OH-DPAT Binding to Rat Hippocampus Membranes. As to conditions: [^3 H]-8-OH-DPAT ligand. How it is done:
(§1) The compounds of Formula I are valuable dopaminergic and serotonergic agents. […] Thus, the compounds of Formula I were tested for their ability to inhibit spontaneous locomotor activity in mice, a test predictive of antipsychotic activity, according to the assay described by McLean J. R., et al., Pharmacology, Biochemistry and Behavior, 1978;8:97-99; for their ability to bind to the dopamine D2 receptor using [^3 H]-2-(N-propyl-N-2-thienylethylamino)-5-hydroxytetralin ([^3 H)N-0437) as the ligand according to the method disclosed in Van der Weide J., et al., Eur. J. Pharmacol., 1987;134:211-219; and for their ability to bind to the serotonin 5HT1A receptor using [^3 H]-8-hydroxy-dipropylaminotetralin ([^3 H]-8-OH-DPAT) as the ligand according to the method disclosed in Peroutka S. J., et al., Brain Res., 1985;344:167-171. The above test methods are incorporated herein by reference. The data in the table show the dopaminergic and serotonergic activity of representative compounds of Formula I.

Test [2] deals with spontaneous locomotor activity in mice. Kind of test: Inhibition of spontaneous locomotor activity in mice, a test predictive of antipsychotic activity. In kind it is in vivo. The following applies: Mus musculus, read-out: Inhibition of Locomotor Activity in Mice (ED50, mg/kg, IP). The protocol:
as §1

Test [3] concerns the target dopamine D2 receptor (h-D2 Receptors) (Homo sapiens, UniProt P14416). Kind of test: Inhibition of [^3 H]N-0437 Binding to h-D2 Receptors. The following applies: [^3 H]N-0437 ligand. The protocol: Thus, the compounds of Formula I were tested for their ability to inhibit spontaneous locomotor activity in mice, a test predictive of antipsychotic activity, according to the assay described by McLean J. R., et al., Pharmacology, Biochemistry and Behavior, 1978;8:97-99; for their ability to bind to the dopamine D2 receptor using [^3 H]-2-(N-propyl-N-2-thienylethylamino)-5-hydroxytetralin ([^3 H)N-0437) as the ligand according to the method disclosed in Van der Weide J., et al., Eur. J. Pharmacol., 1987;134:211-219; and for their ability to bind to the serotonin 5HT1A receptor using [^3 H]-8-hydroxy-dipropylaminotetralin ([^3 H]-8-OH-DPAT) as the ligand according to the method disclosed in Peroutka S. J., et al., Brain Res., 1985;344:167-171. The above test methods are incorporated herein by reference.

Sequence of dopamine D2 receptor (h-D2 Receptors) (P14416 whole entry): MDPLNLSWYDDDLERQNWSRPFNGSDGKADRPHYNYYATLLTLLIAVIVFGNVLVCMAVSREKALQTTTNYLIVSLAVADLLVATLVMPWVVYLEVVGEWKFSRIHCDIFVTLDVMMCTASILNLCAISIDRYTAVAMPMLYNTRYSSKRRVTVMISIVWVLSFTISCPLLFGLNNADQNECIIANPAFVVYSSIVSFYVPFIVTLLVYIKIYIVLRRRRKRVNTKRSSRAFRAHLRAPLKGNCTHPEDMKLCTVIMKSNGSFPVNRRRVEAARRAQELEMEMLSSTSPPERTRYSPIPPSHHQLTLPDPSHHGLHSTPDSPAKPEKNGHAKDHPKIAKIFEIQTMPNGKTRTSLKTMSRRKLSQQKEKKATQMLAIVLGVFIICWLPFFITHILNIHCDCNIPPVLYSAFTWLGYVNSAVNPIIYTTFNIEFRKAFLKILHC

Turning to `Cl.c1ccc(N2CCN(CC[C@H]3CC[C@@H](Nc4ncccn4)CC3)CC2)nc1` [Example 1, cis-{4-[2-(4-Pyridin-2-yl-piperazin-1-yl)-ethyl]-cyclohexyl}-pyrimidin-2-yl-amine hydrochloride], in test [1], the affinity corresponds to a Ki of 8.8 nM. The ED50 in test [2] (mice, IP, ED50) is 1.2 mg/kg.

`c1ccc(N2CCN(CC[C@H]3CC[C@H](Nc4ncccn4)CC3)CC2)nc1` [Example 1a, trans-{4-[2-(4-Pyridin-2-yl-piperazin-1-yl)-ethyl]-cyclohexyl}-pyrimidin-2-yl-amine]: the ED50 in test [2] (mice, IP, ED50) is 0.24 mg/kg. With `c1ccc(N2CCN(CC[C@H]3CC[C@H](Nc4ncccn4)CC3)CC2)cc1` [Example 2, trans-{4-[2-(4-Phenyl-piperazin-1-yl)-ethyl]cyclohexyl}-pyrimidin-2-yl-amine], the Ki in test [3] stood at 3.4 nM; in test [1] it was 3.1 nM. In addition, the ED50 in test [2] (mice, IP, ED50) was 0.3 mg/kg. Consider `c1ccc(N2CCN(CC[C@H]3CC[C@@H](Nc4ncccn4)CC3)CC2)cc1` [Example 9, cis-{4-[2-(4-Phenyl-piperazin-1-yl)-ethyl]-cyclohexyl}-pyrimidin-2-yl-aminehydrochloride], for which the results for the Ki in test [3] and in test [1] were 28 nM and 1.9 nM, respectively. On to `FC(F)(F)c1cccc(N2CCN(CC[C@H]3CC[C@H](Nc4ncccn4)CC3)CC2)c1` [Example 12, trans-Pyrimidin-2-yl-(4-{2-[4-(3-trifluoromethyl-phenyl)-piperazin-1-yl]-ethyl}-cyclohexyl)-amine], for which the ED50 in test [2] (mice, IP, ED50) is 4.4 mg/kg.

For `COc1ccccc1N1CCN(CC[C@H]2CC[C@H](Nc3ncccn3)CC2)CC1` [Example 13, trans-(4-{2-[4-(2-Methoxy-phenyl)-piperazin-1-yl]ethyl}-cyclohexyl)-pyrimidin-2-yl-amine], the ED50 in test [2] (mice, IP, ED50) was 0.5 mg/kg. As to `Fc1ccc(N2CCN(CC[C@H]3CC[C@H](Nc4ncccn4)CC3)CC2)cc1` [Example 15, trans-(4-{2-[4-(4-Fluoro-phenyl)-piperazin-1-yl]-ethyl}-cyclohexyl)-pyrimidin-2-yl-amine], the results for the Ki in test [3] and in test [1] were 8.3 nM and 4.4 nM, respectively. Further, in test [2] (mice, IP, ED50), the ED50 was 0.7 mg/kg.

Consider `C1=C(c2ccccc2)CCN(CC[C@H]2CC[C@H](Nc3ncccn3)CC2)C1` [Example 16, trans-{4-[2-(4-Phenyl-3,6-dihydro-2H-pyridin-1-yl)-ethyl]-cyclohexyl}-pyrimidin-2-yl-amine], for which, in test [2] (ip), the ED50 was 0.25 mg/kg. Consider `c1cnc(N[C@H]2CC[C@H](CCN3CCN(c4nccs4)CC3)CC2)nc1` [Example 17, trans-Pyrimidin-2-yl-{4-[2-(4-thiazol-2-yl-piperazin-1-yl)-ethyl]-cyclohexyl}-amine], for which the ED50 in test [2] (mice, IP, ED50) was 0.3 mg/kg.

In the case of `c1cnc(N[C@H]2CC[C@H](CCN3CCN(c4cccnc4)CC3)CC2)nc1` [Example 20, trans-{4-[2-(4-Pyridin-3-yl-piperazin-1-yl)-ethyl]-cyclohexyl}-pyrimidin-2-yl-amine], the affinity in test [3], expressed as Ki, was 25.3 nM. With `c1ccc(N2CCN(CC[C@H]3CC[C@H](Nc4ccccn4)CC3)CC2)cc1` [Example 24, trans-{4-[2-(4-Phenyl-piperazin-1-yl)-ethyl]cyclohexyl}-pyridin-2-yl-amine], the Ki in test [3] turned out to be 1.4 nM; in test [1], 1.2 nM. Besides, the ED50 in test [2] (mice, IP, ED50) is 0.2 mg/kg.

For the molecule `c1ccc(N2CCN(CC[C@H]3CC[C@H](Nc4nccs4)CC3)CC2)cc1` [Example 26, trans-{4-[2-(4-Phenyl-piperazin-1-yl)-ethyl]-cyclohexyl}-thiazol-2-yl-amine], the inhibition constant Ki in test [3] came out at 2.35 nM; in test [1], 7.9 nM. `c1ccc(N2CCN(CC[C@H]3CC[C@H](Nc4cnccn4)CC3)CC2)cc1` [Example 27, trans-{4-[2-(4-Phenyl-piperazin-1-yl)-ethyl]-cyclohexyl}-pyrazin-2-yl-amine]: the Ki worked out at 0.93 nM in test [3] and 5.1 nM in test [1]. Moreover, the ED50 in test [2] (mice, IP, ED50) was 0.18 mg/kg.

These data come from patent US5977110A, “Substituted cyclohexylamines as central nervous systems agents” (Warner-Lambert Company, priority 1998, dated 1999).
